Test results taken from ChEMBL document CHEMBL3232909, “Arylamino bisphosphonates: potent and selective inhibitors of the tumor-associated carbonic anhydrase XII” (Bioorg Med Chem Lett, 2014).

Assays:
Carbonic anhydrase 12 = Carbonic anhydrase 12 (Homo sapiens, UniProt O43570)
Description: Inhibition of human recombinant carbonic anhydrase 12 preincubated for 15 mins by stopped flow CO2 hydration method

Carbonic anhydrase 2 = Carbonic anhydrase 2 (Homo sapiens, UniProt P00918)
Description: Inhibition of human recombinant carbonic anhydrase 2 preincubated for 15 mins by stopped flow CO2 hydration method

Carbonic anhydrase 14 = Carbonic anhydrase 14 (Homo sapiens, UniProt Q9ULX7)
Description: Inhibition of human recombinant carbonic anhydrase 14 preincubated for 15 mins by stopped flow CO2 hydration method

Carbonic anhydrase 9 = Carbonic anhydrase 9 (Homo sapiens, UniProt Q16790)
Carbonic anhydrase 1 = Carbonic anhydrase 1 (Homo sapiens, UniProt P00915)
Sequence of Carbonic anhydrase 1 (P00915 whole entry): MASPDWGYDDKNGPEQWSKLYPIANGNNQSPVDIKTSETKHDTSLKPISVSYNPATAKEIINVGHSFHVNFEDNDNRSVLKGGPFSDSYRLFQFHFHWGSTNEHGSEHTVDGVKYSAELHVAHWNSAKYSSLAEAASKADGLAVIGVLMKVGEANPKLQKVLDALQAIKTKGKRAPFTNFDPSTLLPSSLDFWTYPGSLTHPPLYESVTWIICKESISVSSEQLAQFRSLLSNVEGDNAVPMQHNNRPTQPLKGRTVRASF
Description: Inhibition of human recombinant carbonic anhydrase 1 preincubated for 15 mins by stopped flow CO2 hydration method

Sequence of Carbonic anhydrase 12 (O43570 whole entry): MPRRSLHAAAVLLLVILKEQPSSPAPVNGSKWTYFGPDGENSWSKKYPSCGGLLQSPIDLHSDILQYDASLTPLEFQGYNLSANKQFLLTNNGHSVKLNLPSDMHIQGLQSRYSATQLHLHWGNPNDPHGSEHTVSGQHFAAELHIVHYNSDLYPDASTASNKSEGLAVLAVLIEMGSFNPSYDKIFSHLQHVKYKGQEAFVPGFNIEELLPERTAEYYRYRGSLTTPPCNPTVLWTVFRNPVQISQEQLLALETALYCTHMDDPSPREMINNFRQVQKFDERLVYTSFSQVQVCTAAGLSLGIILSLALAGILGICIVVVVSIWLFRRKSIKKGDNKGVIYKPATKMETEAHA
Sequence of Carbonic anhydrase 14 (Q9ULX7 whole entry): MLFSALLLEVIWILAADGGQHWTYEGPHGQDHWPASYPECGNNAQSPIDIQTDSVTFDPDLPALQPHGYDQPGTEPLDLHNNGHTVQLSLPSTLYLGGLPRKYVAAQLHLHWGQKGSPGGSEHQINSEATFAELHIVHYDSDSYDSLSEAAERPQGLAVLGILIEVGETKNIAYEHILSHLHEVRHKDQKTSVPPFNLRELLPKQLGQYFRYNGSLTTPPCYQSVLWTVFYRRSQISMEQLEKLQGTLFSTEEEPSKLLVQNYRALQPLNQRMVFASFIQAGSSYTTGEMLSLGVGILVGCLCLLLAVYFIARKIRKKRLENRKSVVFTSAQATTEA

IC50 (Carbonic anhydrase 12) [µM] | IC50 (Carbonic anhydrase 2) [µM] | IC50 (Carbonic anhydrase 14) [µM] | IC50 (Carbonic anhydrase 9) [µM] | IC50 (Carbonic anhydrase 1) [µM] | Compound
0.092 | > 10 | > 10 | > 10 | 5.83 | O=P(O)(O)C(Nc1cccc(C(F)(F)F)c1)P(=O)(O)O
> 10 | 9.37 | 0.309 | 7.63 | > 10 | O=P(O)(O)C(Nc1cccc(-c2ccccc2)c1)P(=O)(O)O
0.089 | > 10 | > 10 | > 10 | 6.08 | O=P(O)(O)C(Nc1ccc(C(F)(F)F)cc1)P(=O)(O)O
> 10 | > 10 | 8.81 | > 10 | 5.53 | O=[N+]([O-])c1cc(NC(P(=O)(O)O)P(=O)(O)O)ccc1F
> 10 | 9.37 | 4.42 | 8.23 | > 10 | O=P(O)(O)C(Nc1ccc(Oc2ccc(Cl)cc2)cc1)P(=O)(O)O
> 10 | 7.47 | 6.12 | 8.17 | > 10 | O=P(O)(O)C(Nc1ccc(Oc2ccc(Br)cc2)cc1)P(=O)(O)O
8.69 | > 10 | 0.082 | 8.23 | > 10 | O=P(O)(O)C(Nc1cccc(F)c1)P(=O)(O)O
> 10 | > 10 | 8.21 | > 10 | > 10 | O=P(O)(O)C(Nc1ccc(-c2ccccc2)cc1)P(=O)(O)O
> 10 | > 10 | 0.911 | > 10 | 8.29 | O=P(O)(O)C(Nc1cccc(Br)c1)P(=O)(O)O
0.239 | > 10 | > 10 | > 10 | > 10 | O=P(O)(O)C(Nc1ccc(Br)cc1)P(=O)(O)O
0.269 | > 10 | > 10 | > 10 | > 10 | O=P(O)(O)C(Nc1ccc(F)cc1)P(=O)(O)O
0.419 | > 10 | > 10 | > 10 | 7.98 | O=[N+]([O-])c1ccc(NC(P(=O)(O)O)P(=O)(O)O)cc1
6.92 | 9.09 | 0.319 | > 10 | > 10 | O=P(O)(O)C(Nc1cccc2ccccc12)P(=O)(O)O
0.078 | 8.2 | > 10 | > 10 | 4.57 | O=P(O)(O)C(Nc1ccc(O)cc1)P(=O)(O)O

Compound | IC50 (Carbonic anhydrase 12) [µM] | IC50 (Carbonic anhydrase 2) [µM] | IC50 (Carbonic anhydrase 14) [µM] | IC50 (Carbonic anhydrase 9) [µM] | IC50 (Carbonic anhydrase 1) [µM]
O=[N+]([O-])c1cccc(NC(P(=O)(O)O)P(=O)(O)O)c1 [(3-NITROPHENYLAMINO)METHYLENEDIPHOSPHONIC ACID] | 0.088 | > 10 | > 10 | > 10 | 0.814
O=P(O)(O)C(Nc1ccc(Cl)c(Cl)c1)P(=O)(O)O [3,4-DICHLOROPHENYLAMINOMETHYLENEBISPHOSPHONIC ACID] | > 10 | > 10 | 7.84 | > 10 | > 10
Cc1ccc(NC(P(=O)(O)O)P(=O)(O)O)cc1 [(P-TOLYLAMINO)METHYLENEDIPHOSPHONIC ACID] | 0.35 | > 10 | > 10 | > 10 | 5.93
O=P(O)(O)C(O)(Cn1ccnc1)P(=O)(O)O [ZOLEDRONIC ACID] | 0.316 | 0.062 | 0.092 | 5.32 | > 10
O=P(O)(O)C(Nc1ccc(Cl)cc1Cl)P(=O)(O)O [2,4-DICHLOROPHENYLAMINOMETHYLENEBISPHOSPHONIC ACID] | > 10 | > 10 | 7.46 | > 10 | 7.14
O=P(O)(O)C(Nc1ccc(Oc2ccccc2)cc1)P(=O)(O)O | > 10 | > 10 | 5.5 | 8.21 | > 10
O=P(O)(O)C(Nc1ccccc1)P(=O)(O)O [(PHENYLAMINO)METHYLENEDIPHOSPHONIC ACID] | 0.437 | > 10 | > 10 | 8.92 | > 10
